{"source": "patent US6797721B2", "about": "“Phorboxazole derivatives for treating cancer” (Parker Hughes Institute, priority 1999, dated 2004)", "key": {"[1]": {"test_system": "NALM-6 human B-lineage acute lymphoblastic leukemia cells", "assay": "MTT cytotoxicity assay, NALM-6", "format": "cell-based", "details": "NALM-6 (leukemia, ALL), 24-36 hours, read-out: IC50 [MTT]", "method": "(§1) The cytotoxicity assay of synthetic Phorboxazole A and various derivative compounds against human tumor cells was performed using the MTT (3-[4,5-dimethylthiazol-2-yl]-2,5-diphenyl tetrazolium bromide) assay (Boehringer Mannheim Corp., Indianapolis, Ind.). Briefly, exponentially growing brain tumor cells were seeded into a 96-well plate at a density of 2.5×10^4 cells/well and incubated for 36 hours at 37° C. prior to drug exposure. On the day of treatment, culture medium was carefully aspirated from the wells and replaced with fresh medium containing the various phorboxazole A derivative compounds as well as the tyrosine kinase inhibitory isoflavone genistein (GEN) at concentrations ranging from 0.1 to 250 μM. Triplicate wells were used for each treatment.\n(§2) Human glioblastoma cells U373 (brain cancer), human B-lineage acute lymphoblastic leukemia cells NALM-6, and human breast cancer cells BT-20 were obtained from American Type Culture Collection (Rockville, Md.) and maintained as a continuous cell line in Dulbecco's modified Eagles's medium supplemented with 10% fetal bovine serum and antibiotics.\n(§3) The cells were incubated with the various compounds for 24-36 hours at 37° C. in a humidified 5% CO2 atmosphere. To each well, 10 μl of MTT (0.5 mg/ml final concentration) was added and the plates were incubated at 37° C. for 4 hours to allow MTT to form formazan crystals by reacting with metabolically active cells. The fonnazan crystals were solubilized overnight at 37° C. in a solution containing 10% SDS in 0.01 M HCl. The absorbance of each well was measured in a microplate reader (Labsystems) at 540 nm and a reference wavelength of 690 nm. To translate the OD540 values into the number of live cells in each well, the OD540 values were compared to those on standard OD540-versus-cell number curves generated for each cell line. The percent survival was calculated using the formula: [formula]\n(§4) The IC50 values were calculated by non-linear regression analysis."}, "[2]": {"test_system": "U373 human glioblastoma cells", "assay": "MTT cytotoxicity assay, U373", "format": "cell-based", "details": "U373 MG, U373 (brain tumor, glioblastoma), 24-36 hours, read-out: IC50 [MTT]", "method": "as §1, §2, §3, §4"}, "ARH77 (multiple myeloma)": {"test_system": "ARH77 (multiple myeloma)", "assay": "MTT cytotoxicity assay, ARH77", "format": "cell-based", "details": "Homo sapiens, ARH-77"}, "[3]": {"test_system": "BT-20 breast cancer cells", "assay": "In vitro adhesion assay to ECM proteins, BT-20", "format": "cell-based, human", "details": "laminin-, fibronectin-, and collagen-coated plates, 0.1 μM to 1 μM for 24 hours", "method": "Human brain tumor cell lines U-373 MG and breast cancer cell lines BT-20 and MDA-MB-231 were obtained from American Type Culture Collection (ATCC, Rockville, Md.) and maintained in liquid culture using DMEM supplemented with 10% fetal bovine serum and antibiotics. Fibroblast conditioned medium was used as a source of chemoattractant in vitro invasion assays. Conditioned medium was prepared as described in the literature (Albini et.al., 1987, Cancer Res., 47:3239-3245).\nIn vitro adhesion assays were performed to (a) study the baseline adhesive properties of various breast cancer and glioblastoma cell lines and (b) evaluate the effects of phorboxazole A derivatives on the adhesive properties of breast cancer and glioblastoma cells. The plates for the adhesion assays were precoated with the extracellular matrix proteins laminin, fibronectin, or type IV collagen (each at a final concentration of 1 μg/ml in PBS) overnight at 4° C. and dried. On the day of the experiment, the wells were rehydrated and blocked with 10% bovine serum albumin in PBS for 1 hour at room temperature and used for the adhesion assays, as described below.\nThe effects of synthetic phorboxazole A and specific derivatives on adhesion of breast cancer and glioblastoma cells was studied. Exponentially growing cells in DMEM were incubated with phorboxazole compounds or genistein as a control at concentrations ranging from 0.1 μM to 1 μM for 24 hours in a humidified 5% CO2 atmosphere. DMSO (0.1%) was included as a vehicle control. After treatment, cells were detached from the flasks with 0.05% trypsin (Life Technologies) resuspended in DMEM, incubated at 37° C. for 2 hours to allow them to recover from the trypsinization stress and examined for their ability to adhere to plates precoated with ECM proteins.\nIn adhesion assays, cells were centrifuged, washed twice with serum-free DMEM, counted and resuspended in serum-free DMEM to a final concentration of 2.5×10^5 cells/ml. […] The adherent fraction was quantitated using MTT (3-[4,5-dimethylthiazol-2-yl]-2,5-diphenyltetrazolium bromide) assays. […] The absorbance of each well was measured in a microplate reader (Labsystems) at 540 nm and a reference wavelength of 690 nm.\nTo translate the OD540 values into the number of cells in each well, the OD540 values were compared to those on standard OD540-versus-cell number curves generated for each cell line. The adherent fractions of cells treated with phorboxazole A derivatives were compared to those of DMSO-treated control cells and the percent inhibition of adhesion was determined using the formula: [formula]\nEach treatment condition was evaluated in duplicate in 3 independent experiments. The IC50 values were calculated by non-linear regression analysis. […]"}}}
{"smiles": "C=C1C[C@@H]2C[C@@H]3C[C@@H](O)C[C@@H](O3)c3coc(n3)/C=C/C[C@H]3O[C@@H](/C(C)=C/c4coc(C[C@]5(O)C[C@H](OC)C[C@H]([C@H](O)/C=C(C)/C=C/[C@@H](C/C=C/Br)OC)O5)n4)[C@H](C)[C@@H](OC(=O)/C=C\\C[C@@H](C1)O2)[C@H]3C", "note": "[Compound 1, Phorboxazole A]", "values": [{"measurement": "IC50", "setting": "[1]", "result": 1.7, "unit": "nM"}, {"measurement": "IC50", "setting": "[2]", "result": 6.7, "unit": "nM"}, {"measurement": "IC50", "setting": "ARH77 (multiple myeloma)", "result": 7.5, "unit": "nM"}, {"measurement": "Inhibition of cell adhesion", "setting": "[3]", "result": "active"}]}
